Reference: patent US20190314379A1, “METHODS OF USING CANNABINOID CB2 RECEPTOR AGONIST COMPOSITIONS TO SUPPRESS AND PREVENT OPIOID TOLERANCE AND WITHDRAWAL IN A SUBJECT” (Indiana University Research and Technology Corporation, priority 2018, published 2019)
Entries after “also recorded” stand apart in the source; their conditions may differ.

Assays:
[1] = tested on: morphine analgesia and antinociceptive tolerance; details: rats, with morphine; cited from earlier work
[2] = tested on: paclitaxel-induced mechanical allodynia; test: Paclitaxel-induced mechanical allodynia (electronic von Frey); format: in vivo, mouse; details: 10 mg/kg per day i.p.×12 days
Procedure: (§1) In all studies, the experimenter was blinded to the treatment condition, and mice were randomly assigned to experimental conditions. Paclitaxel (4 mg/kg i.p.) was administered four times on alternate days (cumulative dose, 16 mg/kg i.p.) to induce neuropathic pain as described previously by our group (Deng et al., 2015). Control mice received an equal volume of cremophor-vehicle. Development of paclitaxel-induced allodynia was assessed on day 0, 4, 7, 11, and 14.
(§2) Effects of pharmacologic manipulations were assessed at 30 minutes after drug administration during the maintenance phase of paclitaxel-induced neuropathy (i.e., beginning day 18-20 after initial paclitaxel injection).
(§3) In experiments 2 and 3, pharmacologic manipulations were performed once daily for 12 consecutive days in each of the two phases of chronic treatment. Four days separated phase 1 and phase 2 chronic dosing in all studies comprising two phases of chronic dosing. Experiments 2 and 3 were performed concurrently using overlapping cohorts that were tested with a single vehicle (phase 1), vehicle (phase 2) group.
(§4) We then assessed the antiallodynic efficacy of chronic systemic administration of vehicle or morphine (10 mg/kg per day i.p.×12 days) administered during phase 2 in the same animals. Responsiveness to mechanical and cold stimulation was evaluated on treatment days 1, 4, 8, and 12 during phase 1 and on treatment days 16, 19, 23, and 27 during phase 2 (i.e., phase 2 started on day 16).
(§5) In experiment 4, we evaluated the impact of coadministration of morphine (10 mg/kg i.p.×12 days) with a submaximal dose of LY 2828360 (0.1 mg/kg per day i.p.×12 days) in WT and CB2 KO mice.
Paw withdrawal thresholds (grams) to mechanical stimulation were measured in duplicate for each paw using an electronic von Frey anesthesiometer supplied with a 90-g probe (model Alemo 2390-5; IITC, Woodland Hills, Calif.) as described previously. Mice were placed on an elevated metal mesh table and allowed to habituate under individual, inverted plastic cages to the testing platform for at least 20 minutes until exploratory behavior had ceased. Alter the habituation period, a force was applied to the midplantar region of the hind paw with a semiflexible tip connected to the anesthesiometer. Mechanical stimulation was terminated when the animal withdrew its paw, and the value of the applied force was recorded in grams. Mechanical paw withdrawal thresholds were obtained in duplicate for each paw and are reported as the mean of duplicate determinations from each animal, averaged across animals, for each group.

[3] = tested on: paclitaxel-induced cold allodynia; test: Paclitaxel-induced cold allodynia (acetone); format: in vivo, mouse; details: 10 mg/kg per day i.p.×12 days
Procedure: as §1, §2, §3, §4, §5
Response time (seconds) spent attending to (i.e., elevating, licking, biting, or shaking) the paw stimulated with acetone (Sigma-Aldrich) was measured in triplicate for each paw to assess cold allodynia as previously published. An acetone bubble (approximately 5 to 6 p.1) formed at the end of a blunt 1-ml syringe hub was gently applied to the plantar surface of the hind paw. Care was taken not to apply mechanical stimulation to the hind paw with the syringe itself. The total time the animal spent attending to the acetone-stimulated paw (i.e., elevation, shaking, or licking) was recorded over 1 minute after acetone application. Acetone was applied three times to each paw with a 3-minute interval between applications. Values for each animal were calculated as the mean of six determinations of acetone responsiveness derived from each mouse.

[4] = tested on: naloxone-precipitated opioid withdrawal; test: Naloxone-precipitated opioid withdrawal in paclitaxel-treated mice; format: in vivo, mouse
Procedure: Alter the last injection of morphine (on day 28 for two-phase treatments, on day 13 for coadministration treatment), we challenged WT or CB2KO mice from experiments 2, 3, and 4 with vehicle, followed 30 minutes later by naloxone (5 mg/kg i.p.) to precipitate opioid receptor-mediated withdrawal. Mice were video-recorded for subsequent scoring of withdrawal-like behaviors for a 30-minute interval after challenge with vehicle or naloxone.
Mice were video-taped, and the number of jumps was scored in 5-minute intervals for a total observation period of 30 minutes after challenge with either saline or naloxone (5 mg/kg i.p.).

mouse CB2 receptors [5] = target: T1, mouse CB2 receptors (Mus musculus, UniProt P47936); test: Arrestin recruitment (PathHunter CHO K1CNR2, enzyme complementation); format: cell-based
T1 construct: expressed in transfected cells

mouse CB2 receptors [6] = target: T1, mouse CB2 receptors; test: On-cell western for receptor internalization, HEK mCB2; format: cell-based
mouse CB2 receptors [7] = target: T1, mouse CB2 receptors; test: Forskolin-stimulated cAMP accumulation (cyclase), HEK mCB2; format: cell-based
mouse CB2 receptors [8] = target: T1, mouse CB2 receptors; test: Phosphorylated ERK1/2 detection, HEK mCB2; format: cell-based
human CB2 [9] = target: T2, human CB2 (Homo sapiens, UniProt P34972); test: On-cell western for receptor internalization, HEK hCB2; format: cell-based; set-up: expressed in transfected cells; details: read-out: Internalization Emax
human CB2 [10] = target: T2, human CB2; test: Forskolin-stimulated cAMP accumulation (cyclase), HEK hCB2; format: cell-based; set-up: expressed in transfected cells; time of inhibition of forskolin-stimulated cAMP accumulation: dose or concentration left out as unconfirmed
human CB2 [11] = target: T2, human CB2; test: Phosphorylated ERK1/2 detection, HEK hCB2; format: cell-based; set-up: expressed in transfected cells
mouse CB2 receptors [12] = target: T1, mouse CB2 receptors; test: Myo-inositol phosphate-1 (IP1) accumulation, HEK mCB2; format: cell-based; details: via mouse CB2
[13] = WT mice, days 16-27, 10 mg/kg/day

T2 sequence (P34972 whole entry): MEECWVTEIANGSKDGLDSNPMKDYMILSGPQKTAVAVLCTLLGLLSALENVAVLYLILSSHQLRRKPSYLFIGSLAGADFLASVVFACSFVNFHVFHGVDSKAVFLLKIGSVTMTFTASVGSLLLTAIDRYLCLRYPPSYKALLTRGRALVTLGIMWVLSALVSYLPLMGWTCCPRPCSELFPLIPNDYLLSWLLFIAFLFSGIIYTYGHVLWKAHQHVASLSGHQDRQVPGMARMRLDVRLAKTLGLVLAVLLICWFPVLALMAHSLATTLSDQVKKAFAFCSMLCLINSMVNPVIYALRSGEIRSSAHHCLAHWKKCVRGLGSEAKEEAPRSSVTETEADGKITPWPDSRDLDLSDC
T1 sequence (P47936 whole entry): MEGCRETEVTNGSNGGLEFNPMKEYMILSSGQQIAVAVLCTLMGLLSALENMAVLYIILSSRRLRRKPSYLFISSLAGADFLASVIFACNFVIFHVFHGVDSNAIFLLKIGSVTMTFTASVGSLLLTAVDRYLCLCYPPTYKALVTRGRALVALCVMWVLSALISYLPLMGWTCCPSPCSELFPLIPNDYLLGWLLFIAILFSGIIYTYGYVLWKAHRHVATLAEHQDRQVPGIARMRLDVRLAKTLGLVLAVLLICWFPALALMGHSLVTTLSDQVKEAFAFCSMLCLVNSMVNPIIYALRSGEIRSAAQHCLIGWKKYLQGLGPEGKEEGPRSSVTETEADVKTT

CCCCCOc1c(OC)ccc2cc(C(=O)NCc3ccc4c(c3)OCO4)c(=O)[nH]c12 [JTE907]
morphine analgesia and morphine antinociceptive tolerance [1]: decreased morphine analgesia and attenuated morphine antinociceptive tolerance

CN1CC[C@]23c4c5ccc(O)c4O[C@H]2[C@@H](O)C=C[C@H]3[C@H]1C5 [morphine, reference compound]
mechanical allodynia, chronic phase 1 morphine ([2]; CB2KO mice): completely absent on day 8 and day 12
mechanical allodynia, chronic phase 1 morphine ([2]; WT mice, days 4, 8, 12): tolerance developed to the antiallodynic effects of morphine
mechanical allodynia, phase 2 morphine after phase 1 vehicle [2, 13]: only suppressed paclitaxel-induced mechanical and cold allodynia on day 16; also recorded: no longer efficacious
cold allodynia, chronic phase 1 morphine ([3]; CB2KO mice): completely absent on day 8 and day 12
cold allodynia, chronic phase 1 morphine ([3]; WT mice, days 4, 8, 12): tolerance developed to the antiallodynic effects of morphine
cold allodynia, phase 2 morphine after phase 1 vehicle [3, 13]: only suppressed paclitaxel-induced mechanical and cold allodynia on day 16; also recorded: no longer efficacious
naloxone-precipitated jumping, Veh (1)-Mor (2) vs Veh (1)-Veh (2) ([4]; paclitaxel-treated CB2KO mice): precipitated jumping
number of naloxone-precipitated jumps, vehicle (1)-morphine (2) vs vehicle (1)-vehicle (2) ([4]; paclitaxel-treated WT mice, morphine 10 mg/kg per day×12 days, naloxone 5 mg/kg i.p.): exhibited a greater number of jumps
naloxone-precipitated withdrawal, Mor (1)-LY (2) vs Veh (1)-Veh (2) ([4]; paclitaxel-treated WT mice, morphine in phase 1): did not precipitate withdrawal

CCCCCCC(C)(C)c1ccc([C@@H]2C[C@H](O)CC[C@H]2CCCO)c(O)c1 (relative stereo) [CP55940, reference compound]
EC50 (mouse CB2 receptors [5]): 2.3 nM
arrestin recruitment (mouse CB2 receptors [5]; CHO cells expressing mCB2, 90-minute drug incubation): recruited arrestin in a concentration-dependent manner
Emax (mouse CB2 receptors [5]; read-out: Arrestin Emax): 125%
EC50 (mouse CB2 receptors [6]): 7.4 nM
receptor internalization (mouse CB2 receptors [6]; HEK mCB2): concentration dependently internalized the mCB2
Emax (mouse CB2 receptors [6]; read-out: Internalization Emax): 49.1%
EC50 (mouse CB2 receptors [7]): 6.6 nM
forskolin-induced cAMP levels (mouse CB2 receptors [7]; HEK mCB2, 1 μM final concentration, 5 minutes): attenuated forskolin-induced cAMP levels; also recorded: stronger inhibitory effect than AM1710
cAMP levels in the absence of forskolin (mouse CB2 receptors [7]; HEK mCB2, compound alone): alone did not change cAMP levels
forskolin-stimulated cAMP after PTX treatment (mouse CB2 receptors [7]; mCB2, 1 μM, PTX 300 ng/ml overnight): modestly increased cAMP accumulation at 5 minutes; also recorded: abolished the decrease in forskolin-stimulated cAMP
time of efficacious inhibition of forskolin-stimulated adenylyl cyclase (mouse CB2 receptors [7]; mCB2, 1 μM, time course): ~5 min
inhibition of forskolin-stimulated cAMP accumulation, concentration response (mouse CB2 receptors [7]; mCB2, 5 minutes): potently and efficaciously inhibited cAMP accumulation
Emax (mouse CB2 receptors [7]; read-out: Cyclase Emax): 52.8%
ERK1/2 phosphorylation time course (mouse CB2 receptors [8]; mCB2, 1 μM): increased phosphorylated ERK1/2 at 5-, 10-, 30-, and 40-minute time points
ERK1/2 phosphorylation after PTX treatment (mouse CB2 receptors [8]; mCB2, 1 μM, PTX): abolished the CP55940-mediated phosphorylation of ERK1/2 at the 5-minute time point, but it was retained at the 40-minute time point
ERK1/2 phosphorylation, concentration response (mouse CB2 receptors [8]; mCB2, 5 minutes): concentration dependency increased ERK1/2 phosphorylation
ERK1/2 phosphorylation, concentration response (mouse CB2 receptors [8]; mCB2, 20 minutes): decreased ERK1/2 phosphorylation
effect on ERK1/2 phosphorylation in presence of SR144528 (mouse CB2 receptors [8]; mCB2, 20 minutes, SR144528 1 μM): blocked
EC50 (mouse CB2 receptors [8]; pERK1/2 EC50, mouse CB2, 05 mins incubation): 10.5 nM
EC50 (mouse CB2 receptors [8]; pERK1/2 EC50, mouse CB2, 20 mins incubation): 1.5 nM
Emax (mouse CB2 receptors [8]; read-out: pERK1/2 Emax, mouse CB2, 05 mins incubation): 136%
Emax (mouse CB2 receptors [8]; read-out: pERK1/2 Emax, mouse CB2, 20 mins incubation): 20.3%
Emax (human CB2 [9]): 33.9%
cAMP levels, compound alone (no forskolin) (human CB2 [10]; HEK hCB2): alone did not change the cAMP levels
duration of decrease in cAMP (human CB2 [10]; HEK hCB2): up to 10 minutes
inhibition of forskolin-induced cAMP levels, time course (human CB2 [10]; HEK hCB2, 1 μM final concentration): produced early inhibition of forskolin-induced cAMP levels at 5 minutes
inhibition of forskolin-stimulated cAMP after PTX pretreatment (human CB2 [10]; HEK hCB2, 1 μM final concentration, PTX): blocked the inhibition of forskolin-stimulated cAMP
inhibition of forskolin-stimulated cAMP accumulation (human CB2 [10]; hCB2, 5 minutes of treatment): potent and efficacious
time of inhibition of forskolin-stimulated cAMP accumulation (human CB2 [10]; hCB2, time course): 5 min
inhibition of cAMP accumulation after PTX pretreatment (human CB2 [10]; hCB2, time course, PTX): abolished this effect
Emax (human CB2 [10]; read-out: Cyclase Emax): 59.6%
ERK1/2 phosphorylation time course (human CB2 [11]; hCB2, 1 pM): efficaciously increased ERK1/2 phosphorylation after 5 minutes, 10 minutes, and 30 minutes
ERK1/2 phosphorylation after PTX treatment (human CB2 [11]; hCB2, 1 pM, PTX): retained
stimulated phosphorylation of ERK1/2 in presence of SR144528 (human CB2 [11]; hCB2, SR144528 (1 pM)): completely blocked
Emax (human CB2 [11]; read-out: pERK1/2 Emax, human CB2, 05 mins incubation): 95.7%
Emax (human CB2 [11]; read-out: pERK1/2 Emax, human CB2, 30 mins incubation): 49.4%

Cc1c(C(=O)c2cccc3ccccc23)c2cccc3c2n1[C@H](CN1CCOCC1)CO3 [WIN55212-2, reference compound]
IP1 accumulation (mouse CB2 receptors [12]): increased IP1 accumulation
